These results are taken from patent publication US7851474B2, “Dipiperazinyl ketones and related analogues” (Neurogen Corporation, priority 2005, dated 2010).

Each structure is given as a SMILES string.

This assay deals with T1, chimeric human H3 receptor (Homo sapiens, UniProt Q9Y5N1, E19D).
T1 construct: made in house; host or cells: Sf9 insect cells (baculovirus infection); P2 membrane preparation
T1 sequence (Q9Y5N1 with tags, fused parts or gaps E19D): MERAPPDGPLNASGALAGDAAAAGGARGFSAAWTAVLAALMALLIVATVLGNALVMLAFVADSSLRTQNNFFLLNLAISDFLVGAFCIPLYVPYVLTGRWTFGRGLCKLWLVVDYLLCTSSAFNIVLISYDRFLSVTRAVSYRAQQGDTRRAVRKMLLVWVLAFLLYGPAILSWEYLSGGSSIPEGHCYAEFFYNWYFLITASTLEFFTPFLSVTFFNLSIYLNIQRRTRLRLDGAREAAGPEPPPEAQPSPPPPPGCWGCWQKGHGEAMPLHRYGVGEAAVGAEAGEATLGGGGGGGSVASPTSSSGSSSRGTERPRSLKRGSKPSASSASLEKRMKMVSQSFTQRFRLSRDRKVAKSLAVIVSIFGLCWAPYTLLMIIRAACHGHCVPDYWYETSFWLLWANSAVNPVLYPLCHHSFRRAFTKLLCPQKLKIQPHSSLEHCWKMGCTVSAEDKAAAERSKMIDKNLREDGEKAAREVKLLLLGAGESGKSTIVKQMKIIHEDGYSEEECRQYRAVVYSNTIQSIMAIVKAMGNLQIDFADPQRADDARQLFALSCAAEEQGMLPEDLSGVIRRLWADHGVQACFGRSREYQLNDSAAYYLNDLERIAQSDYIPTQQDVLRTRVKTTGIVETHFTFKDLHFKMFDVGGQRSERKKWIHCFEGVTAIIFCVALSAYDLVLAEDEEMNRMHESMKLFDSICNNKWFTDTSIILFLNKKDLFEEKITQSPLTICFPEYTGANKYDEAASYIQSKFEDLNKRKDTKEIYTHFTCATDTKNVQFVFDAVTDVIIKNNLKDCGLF
The experiment in a line: Chimeric human H3 receptor screening GTP binding assay (inhibition of histamine-stimulated GTP-gamma35S binding, Example 8). Particulars: 1 h; assay described in Example 8; symbol + in column headed Ki of Table II; read-out: percent inhibition of agonist-induced GTP-gammaS binding to H3. The assay is classed as biochemical. The protocol: This Example illustrates a representative screening assay for evaluating inhibition of histamine-stimulated GTP-gamma^35S binding. Such GTP binding activity can be used to identify H3 antagonists and inverse agonists. A compound analyzed in this assay is referred to herein as a “test compound,” and the initial identification of antagonists and inverse agonists is performed using a test compound concentration of 4 μM.
Four independent baculoviral stocks (one directing the expression of the chimeric human H3 receptor and three directing the expression of each of the three subunits of a heterotrimeric G-protein) are used to infect a culture of Sf9 cells as described above. P2 membranes are prepared as described above, and are resuspended by Dounce homogenization (tight pestle) in GTP binding assay buffer (50 mM Tris pH 7.4, 120 mM NaCl, 5 mM MgCl2, 2 mM EGTA, 1 mg/ml BSA, 0.2 mg/ml bacitracin, 0.02 mg/ml aprotinin, 0.01 mg/ml saponin, 10 μM GDP) and added to assay tubes at a concentration of 35 μg protein/reaction tube. Non-radiolabeled test compounds are added to separate reactions at a concentration of 4 μM along with 1 μM histamine (agonist). Reactions are initiated by the addition of 125 pM GTP-gamma^35S with a final assay volume of 0.20 ml.
After a 60-min incubation at room temperature, reactions are terminated by vacuum filtration over GF/C filters (pre-soaked in 50 mM Tris pH 7.4, 120 mM NaCl plus 0.1% BSA) followed by washing with ice-cold buffer (50 mM Tris pH 7.4, 120 mM NaCl). The amount of receptor-bound (and thereby membrane-bound) GTP-gamma^35S is determined by measuring the bound radioactivity, preferably by liquid scintillation spectrometry of the washed filters. Non-specific binding is determined using 10 uM GTP-gammaS and typically represents less than 5 percent of total binding. After subtraction of non-specific binding, data is expressed as percent inhibition of 1 μM histamine signal.
Neutral antagonists are those test compounds that reduce the histamine-stimulated GTP binding activity towards, but not below, baseline levels. In contrast, in the absence of added histamine, inverse agonists reduce the GTP binding activity of the receptor-containing membranes below baseline. Any test compound that elevates GTP binding activity above baseline in the absence of added histamine in this assay is defined as having agonist activity.
A general note: GTPγS resists hydrolysis and so accumulates on activated G proteins.
Turning to `O=C(/C=C/c1c(F)cccc1Cl)N1CCN(CC(=O)N2CCN(C3CCC3)CC2)CC1` [Compound 388, 1-[(2E)-3-(2-chloro-6-fluorophenyl)prop-2-enoyl]-4-[2-(4-cyclobutylpiperazin-1-yl)-2-oxoethyl]piperazine], the inhibition (commonly how much of the control response was suppressed) at 4 µM was > 90%.
Then `O=C(/C=C/c1ccccc1Cl)N1CCN(CC(=O)N2CCN(C3CCC3)CC2)CC1` [Compound 389, 1-[(2E)-3-(2-chlorophenyl)prop-2-enoyl]-4-[2-(4-cyclobutylpiperazin-1-yl)-2-oxoethyl]piperazine], with > 90%.
The value for `O=C(/C=C/c1cccc(Cl)c1)N1CCN(CC(=O)N2CCN(C3CCC3)CC2)CC1` [Compound 390, 1-[(2E)-3-(3-chlorophenyl)prop-2-enoyl]-4-[2-(4-cyclobutylpiperazin-1-yl)-2-oxoethyl]piperazine] was > 90%; that for `O=C(/C=C/c1ccc(Cl)cc1)N1CCN(CC(=O)N2CCN(C3CCC3)CC2)CC1` [Compound 391, 1-[(2E)-3-(4-chlorophenyl)prop-2-enoyl]-4-[2-(4-cyclobutylpiperazin-1-yl)-2-oxoethyl]piperazine] was > 90%.
Consider `CCOc1ccc(Br)cc1/C=C/C(=O)N1CCN(CC(=O)N2CCN(C3CCC3)CC2)CC1` [Compound 392, 1-[(2E)-3-(5-bromo-2-ethoxyphenyl)prop-2-enoyl]-4-[2-(4-cyclobutylpiperazin-1-yl)-2-oxoethyl]piperazine], for which the inhibition at 4 µM is > 90%.
The value for `COc1ccc(Br)cc1/C=C/C(=O)N1CCN(CC(=O)N2CCN(C3CCC3)CC2)CC1` [Compound 393, 1-[(2E)-3-(5-bromo-2-methoxyphenyl)prop-2-enoyl]-4-[2-(4-cyclobutylpiperazin-1-yl)-2-oxoethyl]piperazine] was > 90%.
As to `O=C(/C=C/c1ccc(-c2ccccc2)cc1)N1CCN(CC(=O)N2CCN(C3CCC3)CC2)CC1` [Compound 394, 1-[(2E)-3-biphenyl-4-ylprop-2-enoyl]-4-[2-(4-cyclobutylpiperazin-1-yl)-2-oxoethyl]piperazine], the inhibition at 4 µM is > 90%.
On to `O=C(CN1CCN(C(=O)c2sccc2Br)CC1)N1CCN(C2CCC2)CC1` [Compound 395, 1-[(3-bromo-2-thienyl)carbonyl]-4-[2-(4-cyclobutylpiperazin-1-yl)-2-oxoethyl]piperazine], for which the inhibition at 4 µM is > 90%.
Turning to `O=C(Cc1cccc(Br)c1)N1CCN(CC(=O)N2CCN(C3CCC3)CC2)CC1` [Compound 396, 1-[(3-bromophenyl)acetyl]-4-[2-(4-cyclobutylpiperazin-1-yl)-2-oxoethyl]piperazine], the inhibition at 4 µM is > 90%.
The value for `O=C(CN1CCN(C(=O)c2sc3ccccc3c2Cl)CC1)N1CCN(C2CCC2)CC1` [Compound 397, 1-[(3-chloro-1-benzothien-2-yl)carbonyl]-4-[2-(4-cyclobutylpiperazin-1-yl)-2-oxoethyl]piperazine] was > 90%; that for `O=C(CN1CCN(C(=O)c2sccc2Cl)CC1)N1CCN(C2CCC2)CC1` [Compound 398, 1-[(3-chloro-2-thienyl)carbonyl]-4-[2-(4-cyclobutylpiperazin-1-yl)-2-oxoethyl]piperazine] was > 90%.
Then `O=C(COc1cccc(Cl)c1)N1CCN(CC(=O)N2CCN(C3CCC3)CC2)CC1` [Compound 399, 1-[(3-chlorophenoxy)acetyl]-4-[2-(4-cyclobutylpiperazin-1-yl)-2-oxoethyl]piperazine], with > 90%; and `O=C(Cc1cccc(Cl)c1)N1CCN(CC(=O)N2CCN(C3CCC3)CC2)CC1` [Compound 400, 1-[(3-chlorophenyl)acetyl]-4-[2-(4-cyclobutylpiperazin-1-yl)-2-oxoethyl]piperazine], with > 90%; and `Cn1nc(C(C)(C)C)cc1C(=O)N1CCN(CC(=O)N2CCN(C3CCC3)CC2)CC1` [Compound 401, 1-[(3-tert-butyl-1-methyl-1H-pyrazol-5-yl)carbonyl]-4-[2-(4-cyclobutylpiperazin-1-yl)-2-oxoethyl]piperazine], with > 90%.
Take `CCn1nc(C)c(Br)c1C(=O)N1CCN(CC(=O)N2CCN(C3CCC3)CC2)CC1` [Compound 402, 1-[(4-bromo-1-ethyl-3-methyl-1H-pyrazol-5-yl)carbonyl]-4-[2-(4-cyclobutylpiperazin-1-yl)-2-oxoethyl]piperazine]: the inhibition at 4 µM is > 90%.
Then `O=C(Cc1ccc(Br)cc1)N1CCN(CC(=O)N2CCN(C3CCC3)CC2)CC1` [Compound 403, 1-[(4-bromophenyl)acetyl]-4-[2-(4-cyclobutylpiperazin-1-yl)-2-oxoethyl]piperazine], with > 90%; and `COc1cc(Cl)ccc1OCC(=O)N1CCN(CC(=O)N2CCN(C3CCC3)CC2)CC1` [Compound 404, 1-[(4-chloro-2-methoxyphenoxy)acetyl]-4-[2-(4-cyclobutylpiperazin-1-yl)-2-oxoethyl]piperazine], with > 90%.
Then `Cc1cc(Cl)ccc1OCC(=O)N1CCN(CC(=O)N2CCN(C3CCC3)CC2)CC1` [Compound 405, 1-[(4-chloro-2-methylphenoxy)acetyl]-4-[2-(4-cyclobutylpiperazin-1-yl)-2-oxoethyl]piperazine], with > 90%; and `O=C(COc1ccc(Cl)cc1)N1CCN(CC(=O)N2CCN(C3CCC3)CC2)CC1` [Compound 406, 1-[(4-chlorophenoxy)acetyl]-4-[2-(4-cyclobutylpiperazin-1-yl)-2-oxoethyl]piperazine], with > 90%; and `O=C(Cc1ccc(Cl)cc1)N1CCN(CC(=O)N2CCN(C3CCC3)CC2)CC1` [Compound 407, 1-[(4-chlorophenyl)acetyl]-4-[2-(4-cyclobutylpiperazin-1-yl)-2-oxoethyl]piperazine], with > 90%.
As for `CC(C)(C)c1ccc(OCC(=O)N2CCN(CC(=O)N3CCN(C4CCC4)CC3)CC2)cc1` [Compound 408, 1-[(4-tert-butylphenoxy)acetyl]-4-[2-(4-cyclobutylpiperazin-1-yl)-2-oxoethyl]piperazine], the inhibition at 4 µM was > 90%.
For the compound `O=C(CN1CCN(C(=O)c2ccc(Br)s2)CC1)N1CCN(C2CCC2)CC1` [Compound 410, 1-[(5-bromo-2-thienyl)carbonyl]-4-[2-(4-cyclobutylpiperazin-1-yl)-2-oxoethyl]piperazine], the inhibition at 4 µM was > 90%.
Then `O=C(CN1CCN(C(=O)c2cncc(Br)c2)CC1)N1CCN(C2CCC2)CC1` [Compound 411, 1-[(5-bromopyridin-3-yl)carbonyl]-4-[2-(4-cyclobutylpiperazin-1-yl)-2-oxoethyl]piperazine], with > 90%; and `CCCCc1ccc(C(=O)N2CCN(CC(=O)N3CCN(C4CCC4)CC3)CC2)nc1` [Compound 412, 1-[(5-butylpyridin-2-yl)carbonyl]-4-[2-(4-cyclobutylpiperazin-1-yl)-2-oxoethyl]piperazine], with > 90%.
With `COc1ncc(Cl)cc1C(=O)N1CCN(CC(=O)N2CCN(C3CCC3)CC2)CC1` [Compound 413, 1-[(5-chloro-2-methoxypyridin-3-yl)carbonyl]-4-[2-(4-cyclobutylpiperazin-1-yl)-2-oxoethyl]piperazine], the inhibition at 4 µM is > 90%.
The value for `O=C(CN1CCN(C(=O)c2ccc(Cl)s2)CC1)N1CCN(C2CCC2)CC1` [Compound 414, 1-[(5-chloro-2-thienyl)carbonyl]-4-[2-(4-cyclobutylpiperazin-1-yl)-2-oxoethyl]piperazine] was > 90%.
Consider `O=C(CN1CCN(C(=O)c2ccc(Cl)nc2)CC1)N1CCN(C2CCC2)CC1` [Compound 416, 1-[(6-chloropyridin-3-yl)carbonyl]-4-[2-(4-cyclobutylpiperazin-1-yl)-2-oxoethyl]piperazine], for which the inhibition at 4 µM was > 90%.
The value for `O=C(CN1CCN(C(=O)c2ccccc2Oc2ccc(Cl)cc2)CC1)N1CCN(C2CCC2)CC1` [Compound 419, 1-[2-(4-chlorophenoxy)benzoyl]-4-[2-(4-cyclobutylpiperazin-1-yl)-2-oxoethyl]piperazine] was > 90%; that for `CC(Oc1ccc(Cl)cc1)C(=O)N1CCN(CC(=O)N2CCN(C3CCC3)CC2)CC1` (centres unmarked) [Compound 420, 1-[2-(4-chlorophenoxy)propanoyl]-4-[2-(4-cyclobutylpiperazin-1-yl)-2-oxoethyl]piperazine] was > 90%.
